# Earlier results as cited in paper PMC6738130 (OncoTargets and therapy, 2019).
# Columns and labels:
# [1] = driven by mitochondrial inner membrane potential (ΔΨ=140–180 mV)
# tumor = conditions: 5 nmol/kg SkQ1 per day in drinking water
Structure (SMILES),Accumulation into the mitochondrial matrix [1],Effect on level of ROS and tumor formation (tumor)
"COC1=C(OC)C(=O)C(CCCCCCCCCC[P+](c2ccccc2)(c2ccccc2)c2ccccc2)=C(C)C1=O [MitoQ, mitoquinone]",several hundred-fold,
CC1=C(C)C(=O)C(CCCCCCCCCC[P+](c2ccccc2)(c2ccccc2)c2ccccc2)=CC1=O.[Br-] [SkQ1],,reduced the level of ROS prevented the formation of a tumor
